Experimental findings from ChEMBL document CHEMBL3988442, “University of Dundee, Small-Polar-MMV Screening Library” (2021) are described below.

One experiment deals with T1, Shiga toxin 2 (Escherichia coli O157:H7, UniProt P09385+P09386).
T1 sequence (P09385 whole entry): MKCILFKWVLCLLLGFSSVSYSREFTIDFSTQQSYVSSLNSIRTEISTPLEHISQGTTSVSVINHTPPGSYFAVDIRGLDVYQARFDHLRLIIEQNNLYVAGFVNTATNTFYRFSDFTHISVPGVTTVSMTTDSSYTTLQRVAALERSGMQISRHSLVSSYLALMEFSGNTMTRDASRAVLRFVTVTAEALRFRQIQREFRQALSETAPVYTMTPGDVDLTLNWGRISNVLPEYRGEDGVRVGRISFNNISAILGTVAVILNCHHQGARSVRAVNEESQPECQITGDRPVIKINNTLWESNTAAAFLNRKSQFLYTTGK
T1 sequence (P09386 whole entry): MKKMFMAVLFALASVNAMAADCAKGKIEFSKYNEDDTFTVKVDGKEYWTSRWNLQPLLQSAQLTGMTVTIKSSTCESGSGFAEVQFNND
Kind of experiment: E. coli 0.157:H7 Shiga Toxin SOP - stx2 screening assay. The format is functional.

The target of experiment [1] is T2, Ubiquitin-activating enzyme e1, putative (Leishmania donovani (strain BPK282A1), UniProt E9BSI1).
T2 sequence (E9BSI1 whole entry): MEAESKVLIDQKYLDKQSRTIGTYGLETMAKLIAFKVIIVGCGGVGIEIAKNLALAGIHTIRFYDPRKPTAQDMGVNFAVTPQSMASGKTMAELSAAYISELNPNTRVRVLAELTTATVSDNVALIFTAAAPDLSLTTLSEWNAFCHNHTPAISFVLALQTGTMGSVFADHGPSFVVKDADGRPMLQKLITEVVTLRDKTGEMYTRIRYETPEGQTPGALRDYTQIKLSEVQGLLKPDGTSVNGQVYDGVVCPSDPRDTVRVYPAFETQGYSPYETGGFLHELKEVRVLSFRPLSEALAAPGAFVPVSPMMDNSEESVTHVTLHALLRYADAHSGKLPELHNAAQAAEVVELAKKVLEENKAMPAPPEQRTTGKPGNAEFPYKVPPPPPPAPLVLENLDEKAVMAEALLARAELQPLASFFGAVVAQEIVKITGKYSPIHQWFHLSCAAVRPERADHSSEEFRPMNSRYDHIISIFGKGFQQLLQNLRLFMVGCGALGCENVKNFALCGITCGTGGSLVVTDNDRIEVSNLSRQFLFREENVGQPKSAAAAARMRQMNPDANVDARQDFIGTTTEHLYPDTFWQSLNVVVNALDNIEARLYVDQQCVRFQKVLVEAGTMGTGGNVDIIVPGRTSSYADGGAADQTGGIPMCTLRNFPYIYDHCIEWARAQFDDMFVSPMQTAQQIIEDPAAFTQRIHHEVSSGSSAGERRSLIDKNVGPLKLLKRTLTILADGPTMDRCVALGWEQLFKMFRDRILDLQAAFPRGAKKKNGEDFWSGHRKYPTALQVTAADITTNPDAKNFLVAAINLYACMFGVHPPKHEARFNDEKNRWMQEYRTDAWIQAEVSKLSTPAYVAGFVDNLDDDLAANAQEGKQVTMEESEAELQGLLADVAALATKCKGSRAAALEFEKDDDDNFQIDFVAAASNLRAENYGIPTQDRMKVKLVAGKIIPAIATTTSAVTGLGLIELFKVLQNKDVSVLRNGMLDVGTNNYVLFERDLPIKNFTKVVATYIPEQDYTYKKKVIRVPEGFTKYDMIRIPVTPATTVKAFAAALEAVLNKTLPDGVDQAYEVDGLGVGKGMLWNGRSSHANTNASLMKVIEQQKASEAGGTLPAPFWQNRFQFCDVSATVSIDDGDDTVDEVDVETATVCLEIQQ
The experiment in a line: Leishmania donovani Ubiquitin Activating Enzyme (LdE1). The experiment is classed as functional.

The target of experiment [2] is T3, Histidine--tRNA ligase (Leishmania infantum, UniProt A4I591).
T3 sequence (A4I591 whole entry): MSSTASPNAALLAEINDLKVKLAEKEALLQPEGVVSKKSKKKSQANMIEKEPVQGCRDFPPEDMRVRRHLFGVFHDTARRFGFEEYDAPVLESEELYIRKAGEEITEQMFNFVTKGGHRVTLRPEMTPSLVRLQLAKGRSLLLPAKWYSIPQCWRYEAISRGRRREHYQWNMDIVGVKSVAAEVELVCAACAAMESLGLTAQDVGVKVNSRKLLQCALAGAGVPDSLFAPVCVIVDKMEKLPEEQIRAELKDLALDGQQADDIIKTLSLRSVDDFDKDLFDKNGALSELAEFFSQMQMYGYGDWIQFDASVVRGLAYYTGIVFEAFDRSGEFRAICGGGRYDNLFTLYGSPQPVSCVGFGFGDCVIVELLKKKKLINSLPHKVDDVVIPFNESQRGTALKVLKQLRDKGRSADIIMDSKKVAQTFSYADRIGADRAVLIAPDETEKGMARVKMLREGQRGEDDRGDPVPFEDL
The experiment in a line: Leishmania infantum Histidine tRNA synthetase (LdHisRS). The experiment is classed as functional.

Experiment [3] addresses Protein translocase subunit SecA (Escherichia coli (strain K12), UniProt P10408). The experiment in a line: Assay to Identify E. coli SecA ATPase Inhibitors. The experiment is classed as functional.
A further experiment has as its target Lysine--tRNA ligase (Plasmodium falciparum (isolate 3D7), UniProt Q8IDJ8). The experiment in a line: Pf-KRS-1 (Lysyl-RNA Synthetase-1, KRS-1, cytosolic KRS) from Plasmodium falciparum. Inhibitor assay, 384 well plate, luminescence read. The format is functional.
In experiment [4] the target is T4, Histidine--tRNA ligase (Trypanosoma cruzi (strain CL Brener), UniProt Q4DA54).
T4 sequence (Q4DA54 whole entry): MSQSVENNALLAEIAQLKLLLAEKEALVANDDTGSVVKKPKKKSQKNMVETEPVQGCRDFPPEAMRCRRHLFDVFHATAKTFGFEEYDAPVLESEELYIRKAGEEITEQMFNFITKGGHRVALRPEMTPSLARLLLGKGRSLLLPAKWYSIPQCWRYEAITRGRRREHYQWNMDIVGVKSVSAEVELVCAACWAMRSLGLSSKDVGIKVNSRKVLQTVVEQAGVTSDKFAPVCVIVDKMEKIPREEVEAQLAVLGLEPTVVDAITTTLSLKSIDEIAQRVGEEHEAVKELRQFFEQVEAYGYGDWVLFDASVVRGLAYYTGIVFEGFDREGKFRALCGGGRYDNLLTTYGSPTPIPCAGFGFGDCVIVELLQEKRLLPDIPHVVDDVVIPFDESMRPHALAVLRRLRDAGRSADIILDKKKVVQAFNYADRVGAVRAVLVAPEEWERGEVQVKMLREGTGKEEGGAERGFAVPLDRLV
The experiment in a line: Trypanosoma cruzi histidyl tRNA synthetase (Tc-HisRS). The experiment is classed as functional.

The target of the next experiment is ClpP1P2 (Mycobacterium tuberculosis (strain ATCC 25618 / H37Rv), UniProt P9WPC3+P9WPC5). The experiment in a line: in vitro assay to detect presence of AMC directly proportional to the activity of ClpP1P2. GHDDI collaboration. The format is functional.
The nature of experiment [5]: To identify inhibition of the IFN signalling (Jak-Stat) pathway via expression of an eGFP reporter gene under the control of an IFN-stimulated response element (ISRE) containing MxA promoter. The format is functional, Homo sapiens.
Experiment [6] in a line: In vitro enzyme assay to detect hydrolysis of chlorophenol red-beta-D-[…] directly proportional to the number of Toxoplasma stably expressing beta-galactosidase. The experiment is classed as functional, organism-based, Toxoplasma gondii. The following applies: Toxoplasma gondii.

Where “and” joins values, the source holds several entries; their conditions need not be identical. Equal entries are not always repeated. A value given as a limit tells only on which side of the number the result lay.

Protein translocase subunit SecA, sequence (P10408 whole entry): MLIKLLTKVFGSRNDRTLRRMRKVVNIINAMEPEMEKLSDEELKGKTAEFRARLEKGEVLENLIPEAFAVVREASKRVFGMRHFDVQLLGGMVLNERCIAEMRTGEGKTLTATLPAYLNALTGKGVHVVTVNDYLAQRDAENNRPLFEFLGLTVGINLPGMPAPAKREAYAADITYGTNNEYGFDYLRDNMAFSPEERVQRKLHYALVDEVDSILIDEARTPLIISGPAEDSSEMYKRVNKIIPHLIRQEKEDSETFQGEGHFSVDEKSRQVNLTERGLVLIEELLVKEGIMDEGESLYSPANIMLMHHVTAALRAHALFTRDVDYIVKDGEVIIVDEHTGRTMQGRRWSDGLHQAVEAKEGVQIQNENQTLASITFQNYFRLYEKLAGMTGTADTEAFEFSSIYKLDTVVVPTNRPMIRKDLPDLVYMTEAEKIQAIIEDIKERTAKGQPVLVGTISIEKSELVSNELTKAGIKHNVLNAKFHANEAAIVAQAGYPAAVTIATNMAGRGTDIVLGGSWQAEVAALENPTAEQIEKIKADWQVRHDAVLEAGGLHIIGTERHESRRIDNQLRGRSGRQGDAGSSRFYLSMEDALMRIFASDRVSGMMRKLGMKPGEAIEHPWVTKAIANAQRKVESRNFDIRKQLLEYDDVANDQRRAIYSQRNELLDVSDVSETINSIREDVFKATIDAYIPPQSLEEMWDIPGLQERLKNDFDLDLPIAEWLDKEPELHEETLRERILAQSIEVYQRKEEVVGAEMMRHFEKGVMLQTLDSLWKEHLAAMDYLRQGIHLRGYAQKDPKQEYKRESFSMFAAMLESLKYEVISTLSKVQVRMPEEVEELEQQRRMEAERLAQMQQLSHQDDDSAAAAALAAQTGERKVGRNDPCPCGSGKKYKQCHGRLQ
Lysine--tRNA ligase, sequence (Q8IDJ8 whole entry): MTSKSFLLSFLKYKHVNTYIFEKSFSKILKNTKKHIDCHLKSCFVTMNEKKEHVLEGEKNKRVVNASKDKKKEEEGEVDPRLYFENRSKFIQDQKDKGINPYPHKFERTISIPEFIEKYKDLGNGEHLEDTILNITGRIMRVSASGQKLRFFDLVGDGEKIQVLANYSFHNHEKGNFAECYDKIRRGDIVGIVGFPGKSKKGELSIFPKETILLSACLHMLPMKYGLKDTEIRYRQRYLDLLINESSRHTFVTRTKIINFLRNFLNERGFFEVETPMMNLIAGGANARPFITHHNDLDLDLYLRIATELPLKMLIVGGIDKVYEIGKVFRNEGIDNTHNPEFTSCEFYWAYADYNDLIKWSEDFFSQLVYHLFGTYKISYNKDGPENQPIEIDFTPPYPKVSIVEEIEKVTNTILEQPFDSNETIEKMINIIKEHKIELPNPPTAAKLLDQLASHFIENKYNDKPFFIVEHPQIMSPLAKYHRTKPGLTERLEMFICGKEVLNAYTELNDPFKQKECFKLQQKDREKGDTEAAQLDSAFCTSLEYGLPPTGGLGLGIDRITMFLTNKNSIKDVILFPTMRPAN
ClpP1P2, sequence (P9WPC5 whole entry): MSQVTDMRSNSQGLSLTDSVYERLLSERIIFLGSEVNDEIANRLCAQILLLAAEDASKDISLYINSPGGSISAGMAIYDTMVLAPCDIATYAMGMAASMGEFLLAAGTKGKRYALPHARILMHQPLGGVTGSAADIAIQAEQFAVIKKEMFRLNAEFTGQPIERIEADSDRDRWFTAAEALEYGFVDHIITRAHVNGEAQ
ClpP1P2, sequence (P9WPC3 whole entry): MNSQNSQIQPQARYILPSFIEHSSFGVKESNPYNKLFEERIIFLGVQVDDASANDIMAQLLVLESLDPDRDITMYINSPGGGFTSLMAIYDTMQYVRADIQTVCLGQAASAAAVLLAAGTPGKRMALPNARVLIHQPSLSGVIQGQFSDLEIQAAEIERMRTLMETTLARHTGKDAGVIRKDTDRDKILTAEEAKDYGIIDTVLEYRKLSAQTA

`O=C(Cc1cccc(Cl)c1)N[C@@H]1CCNC[C@H]1O`: the IC50 at Shiga toxin 2 is > 100 µM and 21.3 µM. `O=C1CC(c2ccccc2Br)c2sc(N3CCOCC3)nc2N1` (stereo not drawn): the IC50 in [1] is > 100 µM and 92.2 µM; against Histidine--tRNA ligase [2], 1.13 µM and 1.44 µM; in experiment [3], over 100 µM; at Lysine--tRNA ligase, over 50.1 µM; against Histidine--tRNA ligase [4] it was 6.96 µM and 6.21 µM. At Shiga toxin 2, `Cc1nccn1-c1cccc(C2CCCN2S(=O)(=O)c2cn(C)cn2)n1` (stereo not drawn) showed an IC50 of over 100 µM.

`CC(C)c1cc(C(F)(F)F)n2nc(CCC(=O)O)nc2n1` gave a half-inhibitory concentration (IC50) on Shiga toxin 2 of over 100 µM. The same measure, in the same setting: the same measure for `Cc1nc(C(=O)N2CCC(Cc3cnc4[nH]ccc4c3)C2)co1` (stereo not drawn): over 100 µM; for `Cc1cc(-c2cnn(CCNC(=O)C3CC3)c2C2CC2)on1`: over 100 µM. `CCOc1ccnc(N2CCN(C(=O)c3cccc(C#N)c3)CC2)n1` had an IC50 against Shiga toxin 2 of over 100 µM.

Turning to `O=C1CN(Cc2ccc(-c3ccccc3C(=O)O)cc2)CCN1`, on Shiga toxin 2, the IC50 is over 100 µM. Still for that read-out and setting: the same measure for `COc1ccccc1CC(=O)N1CC[C@@]2(CCCO2)[C@@H](OC)C1`: over 100 µM. With `COc1cccc(C2CC(=O)Nc3nc(N4CCOCC4)sc32)c1OC` (stereo not drawn), the IC50 in experiment [1] is 85.8 µM and 91 µM; at Histidine--tRNA ligase [2], 1.2 µM and 0.876 µM; in experiment [3], 10.6 µM and 8.05 µM; at Lysine--tRNA ligase, over 50.1 µM; against Histidine--tRNA ligase [4], 5.22 µM and 4.5 µM. With `COCCN1CCN(CCS(=O)(=O)C(F)(F)F)CC1C` (stereo not drawn), at Shiga toxin 2, the concentration for half-maximal inhibition (IC50) was 32.8 µM and 33 µM. Still for that read-out and setting: under `COc1ncc(C2(O)CCN(Cc3c(F)cccc3F)CC2)c(OC)n1` stands over 100 µM.

Consider `COc1ccc(C2CC(=O)Nc3nc(N4CCOCC4)sc32)c(OC)c1` (stereo not drawn), for which the IC50 in experiment [1] was over 100 µM; at Histidine--tRNA ligase [2], 0.231 µM and 0.259 µM and 0.28 µM; in experiment [3], > 100 µM and 33.8 µM; at ClpP1P2 it was over 100 µM; at Lysine--tRNA ligase it was over 50.1 µM; against Histidine--tRNA ligase [4], 2.24 µM and 2.8 µM.

In the case of `CN(C)S(=O)(=O)N1CCCC(c2cccc(Cc3ccccc3)n2)C1` (stereo not drawn), the negative logarithm of the IC50 (pIC50) in experiment [5] is 4.718 and 4.613. In addition, the IC50 at Shiga toxin 2 was over 100 µM. The compound `CCOC(=O)c1sc2ccsc2c1CN` gave an IC50 on Shiga toxin 2 of over 100 µM.

On Shiga toxin 2, `NCc1cn(-c2ccccc2C(=O)NCc2cccc(Cl)c2)cn1` gave an IC50 of over 100 µM. Regarding `Cc1noc(NC(=O)c2ccc(Br)cc2)n1`, the figures for the IC50 (in [6]; on Shiga toxin 2) were 9.76 µM and over 100 µM, respectively. Further, the negative-log IC50 (pIC50) in experiment [5] is 4.648 and 4.809.

By IC50 is commonly meant the concentration needed to halve the response being measured. Usually pIC50 stands for the negative decadic logarithm of the IC50, by convention in mol/L.
